In a melting point compilation (Tetko et al.; mined from patent text by program, amines drawn as free bases though some values may be those of a salt):

| SMILES | melting point [°C] |
| --- | --- |
| C=C(C)CNC(=NC#N)Nc1cccnc1 | 140 to 141 |
| Cc1ccc([C@H]2Sc3cc(C)ccc3NC(=O)[C@H]2O)cc1 | 212 to 214 |
| CC(C)(C)OC(=O)NC(=N)c1ccc(C(=O)O)cc1 | > 200 |
| Cc1nc2c(c3c1[nH]c1cccc(F)c13)C(=O)CC(C)(C)C2 | 246 to 247 |
| Cc1cc(C2=NOC(c3cc(Cl)cc(Cl)c3)(C(F)(F)F)C2)ccc1C(=O)Nc1ncc(C#N)cn1 (centres undefined) | 118 to 121 |
| CCCCCCCCOc1ccc(C(=O)Oc2ccc(C(=O)O)c(F)c2)cc1 | 147 to 148 |
| CC1CC(N)(C(=O)O)c2cc(F)ccc2O1 (mixture of isomers) | 153 to 156 |
| CCCn1nnn(-c2cc(Cl)c(Cl)cc2Cl)c1=O | 89 to 90 |
| COc1ccc(CS(=O)c2cc(OC)c(OC)c(OC)c2)cc1 (centres undefined) | 103 to 105 |
| CC1(C)COC(=O)[C@H]1NC(=O)[C@@H](CC(=O)OCc1ccccc1)n1ccc(-c2ccc(-c3ccncc3)cc2)c1 | 175 to 177 |
| N#Cc1ccc(Cl)cc1OC[C@@H]1CO1 | 85 to 86 |
| CON1C=C2N=NC3=C(N2C1)N(C(C)C)CC=C3 | 159 to 162 |
| CCC(CC)(CO)c1cc(Cl)nnc1Cl | 85 to 87 |
| Cc1cc(Br)cc(C#N)c1 | 85 to 86 |
| CC(=NO)c1c(C#N)nn(-c2c(Cl)cc(C(F)(F)F)cc2Cl)c1N | 105 to 110 |
| CC(=O)NCC1CC1c1ccc(F)c2nn(C)cc12 (centres undefined) | 147 to 148 |
| O=C(CN1CCSCC1)N1CCC(C2c3ccc(Cl)c(Br)c3CCc3cc(Br)cnc32)CC1 (centres undefined) | 172 to 174 |
| CCOC(=O)c1ccc(-c2ccc(OC)c(-c3cccc([N+](=O)[O-])c3)c2)cc1 | 106 to 108 |
| COC(=O)c1nc(Cl)c(F)c(N)c1/C=C/[Si](C)(C)C | 103 to 105 |

| SMILES | melting point [°C] |
| --- | --- |
| CCOC(=O)C1=NOC2(CCC(C(C)(C)CC)CC2)C1 (centres undefined) | 82 to 87 |
| CN(C)C1=NS(=O)(=O)N=C1N[C@@H]1c2cc(OC(F)(F)F)ccc2OC(C)(C)[C@H]1O | 135 to 140 |
| CCOC(=O)c1ccc(NC(=O)C(COS(C)(=O)=O)NS(=O)(=O)c2ccc(Cl)cc2)cc1 (racemic) | 153 to 158 |
| N#Cc1ccc(N(Cc2ccc(Br)cc2)n2cnnc2)cc1-c1ccc(OS(N)(=O)=O)cc1 | 122 to 123 |
| Nc1ccc(N2CCc3ccncc3C2)cc1 | > 220 |
| CN1CC2CC1CN2c1ccc(NC=C2C(=O)NC(=O)c3ccc(I)cc32)cc1 (centres undefined) | 210 to 211 |
| Cn1nnnc1CC(O)(c1ccc(F)cc1)c1ccc(F)cc1 | 116 to 118 |
| Cc1ccc(N)c(C)c1CO | 85 |
| CC(C)(C)ON=C1CCC(NC(=O)N2CCn3c(Cl)c(-c4cccc(F)c4)c(C(N)=O)c3C2)CC1 (centres undefined) | 195 to 198 |
| COC(=O)N[C@H](C(=O)NN(Cc1ccc(-c2cncs2)cc1)C[C@H](O)[C@H](Cc1ccccc1)NC(=O)[C@@H](NC(=O)OC)C(C)(C)C)C(C)C | 134 to 135 |
| COn1nnc2cc3c(=O)n(C(C)Cn4ncnn4)nnc3cc2c1=O (centres undefined) | 227 to 231 |
| CC(=O)OC(C(=O)O)(C(=O)N(C(C)=O)C(C)=O)c1ccc(Cl)c(C)c1 (centres undefined) | 169 to 171 |
| CN(C)CC1CCc2cc(OCc3ccc([N+](=O)[O-])cc3)ccc2C1 (centres undefined) | 83 to 89 |
| COc1ccc2c(c1)C(=O)c1c-2n(CCCBr)c(=O)c2cc([N+](=O)[O-])ccc12 | 282 to 284 |
| N=C(NCCCc1c[nH]cn1)N[N+](=O)[O-] | 156 to 158 |
| CCOc1ccc([N+](=O)[O-])c(NN2CCOCC2)c1 | 152 |
| CCCCc1nc2c(N)nc3cccnc3c2n1CCCOC(C)C | 174 to 175 |
| CC(Cc1c[nH]c2ccccc12)(NC(=O)OC1C2CC3CC(C2)CC1C3)C(=O)NCC(NC=O)c1ccccc1 (centres undefined) | 102 to 118 |
| CCOC(=O)C(=CNc1cc([N+](=O)[O-])ccc1O)C(=O)c1cc(F)c(F)c(F)c1F | 222 |

| SMILES | melting point [°C] |
| --- | --- |
| C=C(C)COc1ccc(C(=O)C=Cc2cccs2)c(O)c1 | 119 to 120 |
| O=C(O)CCC(=O)N1CCc2cc(S(=O)(=O)N3CCN(c4ccc(C(=O)O)cc4)CC3)ccc21 | 255 to 257 |
| CSC(=NCc1cccnc1)NC#N | 152 to 154 |
| COC12C=CC(CC1)C1=C2C(=O)c2c(O)ccc(O)c2C1=O (centres undefined) | 239 to 241 |
| COC(=O)c1ccc(S(=O)(=O)C(Cn2ccnc2)c2ccccc2OC)cc1 (centres undefined) | 150 to 151 |
| Cc1oc2nc3c(c(N)c2c1C)C(=O)CCC3 | 190 to 198 |
| CCC(COC)n1cc(Cl)nc(N2CCc3cc(OC)cc(Cl)c32)c1=O (centres undefined) | 126 to 128 |
| COC(=O)C(CCSC)c1nc(C)nc2c1nnn2-c1ccc(C(C)C)cc1Br (centres undefined) | 135 to 137 |
| CCn1c(C=NNC(N)=S)cnc1[N+](=O)[O-] | 220 to 222 |
| CN(C)CCC(CCO)c1ccncc1 (centres undefined) | 26 |
| CC#Cc1ncn2c1CN(C)C(=O)c1c(Cl)cccc1-2 | 243 to 244 |
| COC(=O)C1=C(NC(=O)Nc2cc(C(=O)OC(C)C)c(Cl)cc2F)CCS1 | 161 to 163 |
| CC12CCC(C1)C1(C)Oc3ccc(C(=O)c4ccc(C(=O)O)cc4)cc3C21C (centres undefined) | 262 to 264 |
| O=C(O)CCCCCCCCCCOc1ccccc1 | 76 to 78 |
| CCCNC1=CC(=O)C(NCCC)=C2C1=Nc1ccccc1S2(=O)=O | 174 to 176 |
| O=C(c1cc(-c2ccc(Cl)cc2)c(N2CCOCC2)s1)c1cc(-c2ccc(Cl)cc2)c(N2CCOCC2)s1 | 135 to 136 |
| CC(C)(C)OC(=O)c1ncn2c1[C@@H]1CCCN1C(=O)c1c-2cccc1[N+](=O)[O-] | 231 to 233 |
| CCCCCCCCCCCC(=O)c1c[nH]c(C(=O)OC)c1 | 102 to 103 |
| N#Cc1ccc(-c2csc(N3C(=O)OC[C@H]3CF)n2)cc1 | 195 to 196 |

Continued, values first:

| melting point [°C] | SMILES |
| --- | --- |
| 91 to 93 | CNC(=O)c1cnc(Cl)cc1-c1ccccc1C |
| 131 to 133 | CC(=O)OC1CSC(Oc2cccc(-c3cn(C)nc3C(F)(F)F)c2)C(OC(C)=O)C1OC(C)=O (centres undefined) |
| 87 to 91 | Cc1ccc(C[C@@H]2CN(C(=O)/C=C/c3ccccc3)CCN2C(=O)c2cc(C(F)(F)F)cc(C(F)(F)F)c2)cc1C |
| 245 to 246 | COC(=O)C(C)(C)c1ccc(C(=O)Nc2cn3cc(Cl)ccc3n2)cc1 |
| 213 to 214 | CC(C)C[C@H](NC(=O)Nc1cccc2ccccc12)C(=O)N[C@H]1CCOC1=O |
| 120 to 123 | CC(C)OC(=O)c1cc(-n2nc3ccc(Cl)cn3c2=O)c(F)cc1Cl |
| > 230 | CSc1nn2c(N3CCN(c4ccccc4)CC3)cc(C)nc2c1S(=O)(=O)c1ccccc1 |
| 65 to 66 | COc1ccc(Nc2cccc(Cl)c2N)cc1 |
| 230 | CC(=O)Nc1nc2c(Nc3ncnc4cc(Cl)ccc34)cccc2s1 |
| 269 to 272 | CN(C)C=Nc1ncc2cc(-c3c(Cl)cccc3Cl)c(N=CN(C)C)nc2n1 |
| 262 to 263 | O=C(Nc1cnc2c(c1)nc1n2CCCC1)c1cc2cc(C(F)(F)F)ccc2n1Cc1cccc(F)c1 |
| 105 to 107 | O=C(O)C1CNc2cc(C(F)(F)F)ccc2O1 (centres undefined) |
| 56 to 58 | CNCCOc1ccc2nc(SCc3ccc(Cl)cc3)sc2c1 |
| 118 to 120 | N#CCc1cc(Br)ccc1Sc1ccccc1 |
| 228 to 229 | O=C(Nc1cc(Cl)cc(Cl)c1)c1cnc(Nc2ccccc2)nc1C(F)(F)F |
| 271 to 273 | O=C(O)c1ccc2oc([N+](=O)[O-])c(-c3ccccc3)c2c1 |
| 74 to 75 | COc1ccc(OCc2ccc(C(=O)c3ccccc3)cc2)cc1OC |
| 228 to 230 | O=C1C(=Cc2ccc(Cl)cc2)C(c2ccc(Cl)cc2)Oc2ccc(O)cc21 (centres undefined) |
| 194 to 197 | O=C1N(Cc2nnc(Cl)s2)c2ccccc2C12COc1cc3c(cc12)OCO3 (centres undefined) |
| 60 to 61 | O=C(Oc1ccc(F)cc1)c1cc(C(F)(F)F)cc(C(F)(F)F)c1 |
| 255 to 256 | O=C(O)c1ccc2c(c1)nc(-c1ccc(Oc3cccc(Br)c3)cc1)n2C1CCCCC1 |

| melting point [°C] | SMILES |
| --- | --- |
| 142 to 144 | CC(=O)c1ccc(OCc2cncnc2)cc1OC(CCC(=O)O)c1ccccc1C (racemic) |
| 152 to 154 | N#CC(c1ccc(C(O)C(Cc2cccc(OC(F)(F)C(F)F)c2)NC(=O)c2cccc3c2C=CCCC3)cc1)N1CCCCC1 (racemic) |
| 266 to 268 | Cn1c(/C=C/C(=O)O)c(-c2ccccc2)c2ccccc2c1=O |
| 85 to 87 | CC(=O)NCCC1CCc2ccc3nc(CCc4ccccc4)oc3c21 (centres undefined) |
| 254 to 256 | O=C1CCC(N2C(=O)c3cccc(OCc4ccc5ccccc5n4)c3C2=O)C(=O)N1 (centres undefined) |
| 92 to 94 | Cc1c(NC(=O)c2ccc(OC[C@@H]3CCCO3)cc2)ccc2cc(CNCC3CCOCC3)cnc12 |
| 267 | O=C(Nc1cnns1)c1ccccc1 |
| 81 to 86 | CC(=O)Nc1ccn(C2OC(CO[Si](c3ccccc3)(c3ccccc3)C(C)(C)C)CC2F)c(=O)n1 (centres undefined) |
| 198 to 200 | O=c1cc(-c2ccccc2)cc2n1CCN2 |
| 115 to 118 | O=C(C=Cc1ccc(Cl)cc1)C(CC=Cc1ccc(Cl)cc1)c1ccccc1 (centres undefined) |
| 220 to 222 | Cc1cc2cc(C(=O)O)ccc2s1 |
| 233 to 235 | O=C(Nc1ccccn1)Nc1csc(-c2ccccn2)n1 |
| 237 | CC1CCc2nc(-c3ccccc3)[nH]c(=O)c2C1 (centres undefined) |
| 140 to 141 | CC1(C)CC(NC(=O)NCc2ccccc2)c2cc(C#N)ccc2O1 (centres undefined) |
| 125 to 126 | CC(C(=O)N(C)O)c1ccc(-c2ccccc2)c(F)c1 (centres undefined) |
| 166 to 167 | Cc1cc(Cl)ccc1OCC(=O)N1Cc2cccn2Cc2ccccc21 |
| 150 to 152 | Cc1cc(Cl)nc(N(C=O)c2ccccc2)n1 |
| 205 to 206 | O=C1CCC(Nc2nccc(-n3nnc4ccccc43)n2)CC1 |
| 250 | CN(C)c1nc(Nc2cc(C(=O)NC3CCC3)n[nH]2)c2occc2n1 |
| 302 to 305 | COc1ccc(OC)c2c(Nc3ccc4cn[nH]c4c3)c(C#N)cnc12 |
| 173 to 174 | O=C1C(c2ccccc2)=C(c2ccccc2)C(=O)N1c1ccccc1 |
